Patent US11771086B2, “Pest control composition including novel iminopyridine derivative” (priority 2012, dated 2023)
Like-named read-outs stand apart in the source and are kept apart here.

Legend:
Plutella xylostella [1] = assay: whole plant or invertebrate; format: in vivo
Experimental: (§1) After an air drying process, second instar larvae were released thereto. […] The test was performed in duplicate.
(§2) Method for Judging Synergistic Effects

[2] = tested on: Haemaphysalis longicornis; assay: whole plant or invertebrate; format: in vivo; settings: for mortality at 0.00038 mg: read-out: Mortality of single agent against Haemaphysalis longicornis, single agent 0.38 μg
Experimental: A capsule with a diameter of 2 cm and a height of 2 cm was attached to the dorsal surface of a mouse. A compound of Formula (I), ivermectin, moxidectin, permethrin, amitraz, fipronil, spinetram and the mixture of the compound of Formula (I) and each insecticide were dissolved in ethanol at the concentrations given in […], and each of these was dripped onto the surface of a mouse body within a capsule. After thorough drying, eight Haemaphysalis longicornis nymphs were released and the top of the capsule was sealed with a lid. The mouse was kept in a cage at 25° C. using a 12-hour light period and a 12-hour dark period. Five days after the release, the capsule was removed and the number of surviving and dead nymphs and the number of engorged individuals were counted and the insect mortality and agonal rate was calculated by the following equation. Insect mortality and agonal rate (%)={number of dead and agonal insects/(number of survived insects+number of dead and agonal insects)}×100

Laodelphax striatella [3] = assay: whole plant or invertebrate; settings: for mortality at 0.05 mg/seedling: read-out: Mortality of single agent against Laodelphax striatella, single agent 0.05 mg/Seedling; for mortality at 0.005 mg/seedling: read-out: Mortality of single agent against Laodelphax striatella, single agent 0.005 mg/Seedling; for Theoretical value by Colby's equation: Laodelphax striatella soil irrigation
Experimental: (§3) After the rice seedling was left to stand for 3 days, second instar larvae were released thereto. Thereafter, the larvae were left to stand in a thermostatic chamber (16 hours of light period-8 hours of dark period) at 25° C. […] The test was performed in duplicate. Mortality of larvae (%)={number of dead larvae/(number of survived larvae+number of dead larvae)}×100
B: 100−(mortality of larvae or adults when treated only with each of imidacloprid, fipronil, chlorantraniliprole, spinosad, clothianidin, dinotefuran, sulfoxaflor, pymetrozine, thiamethoxam, flupyradifurone and cycloxaprid))
as §2
When the mortality against Laodelphax striatella in the case of a mixture with another agent exceeded the theoretical value by the Colby's equation, a synergistic effect was judged to be present.

Chilo suppressalis = format: in vivo; settings: soil irrigation, six days after release
Experimental: After standing for 3 days, second instar larvae were released thereto. […] The test was performed in duplicate.
as §2

Spodoptera litura = assay: whole plant or invertebrate; format: in vivo
Experimental: After an air drying process, third instar larvae were released thereto. […] The test was performed in duplicate.
as §2

Aphis gossypii = assay: Reference Test Example 3 Pest control test of Aphis gossypii (foliar treatment, single agent); format: in vivo; design: Aphis gossypii (Reference Test Example 3), mortality of larvae: concentration or dose not given beside the values; settings: foliar treatment, single agent
Laodelphax striatella [4] = assay: Reference Test Example 18 Pest control test of Laodelphax striatella (wheat seedling root treatment); format: in vivo; settings: wheat seedling roots treated; four days after release; 20 μg/seedling
Experimental: The drug was absorbed from the roots for 72 hours, and then ten second instar larvae of Laodelphax striatella were each released thereto. […] The test was performed in duplicate.

Plutella xylostella [5] = assay: Reference Test Example 1 Pest control test of Plutella xylostella (foliar treatment, single agent); format: in vivo; design: Plutella xylostella (Reference Test Example 1), mortality of larvae: concentration or dose not given beside the values; settings: foliar treatment, single agent
Excerpt: After an air drying process, second instar larvae were released thereto. […] Test in duplicate.

rice blast = format: in vivo; settings: single agent 0.5 ppm; foliar application; fourteen days after inoculation
[6] = tested on: Frankliniella occidentalis; assay: whole plant or invertebrate
Experimental: as §3, with “an air drying process, first” for “the rice seedling was left to stand for 3 days, second”
(A: 100−(mortality of larvae or adults when treated only with Compound P212)
B: 100−(mortality of larvae or adults when treated with only the insecticide imidacloprid, dinotefuran, or acetamiprid))
as §2
When the mortality against Frankliniella occidentalis in the case of a mixture with another agent exceeded the theoretical value given by Colby's equation, a synergistic effect was judged to be present.

Laodelphax striatella [7] = assay: whole plant or invertebrate; format: in vivo
Experimental: as §1, §2

Rhizoctonia solani = assay: Test Example 12 Test of control of rice sheath blight (Rhizoctonia solani); format: in vivo; settings: single agent 5 ppm; foliar spray; six days after inoculation
[8] = Haemaphysalis longicornis, topical, 120 h, capsule on mouse, five days, mortality and agonal rate
[9] = Laodelphax striatellus, soil, 72 h, soil irrigation
[10] = Laodelphax striatellus, foliar, 72 h, read-out: Mortality of single agent against Laodelphax striatella

## O=c1c(-c2ccccc2)c([O-])[n+](Cc2ccc(Cl)nc2)c2ccccn12 [1-((6-chloropyridin-3-yl)methyl)-4-oxo-3-phenyl-4H-pyrido[1,2-a]pyrimidin-1-ium-2-olate]
Plutella xylostella [1]; Plutella xylostella, foliar, 72 h, read-out: Mortality of single agent against Plutella xylostella, single agent 1 ppm, cabbage leaf disk spray, three days
  mortality at 1 ppm: 30%
Plutella xylostella [1]; Plutella xylostella, single agent 1 ppm (other component 0)
  Theoretical value by Colby's equation: 30%

## Cc1ccc(/N=C/N(C)/C=N/c2ccc(C)cc2C)c(C)c1 [Amitraz]
[2]; [8]
  mortality at 0.00038 mg: 41%

## CNC(=O)c1cc(Cl)cc(C)c1NC(=O)c1cc(Br)nn1-c1ncccc1Cl [Chlorantraniliprole]
Laodelphax striatella [3]; [9]
  mortality at 0.05 mg/seedling: 9%
Chilo suppressalis; single agent 0.0005 mg/seedling
  Mortality of single agent against Chilo suppressalis: 60%
Spodoptera litura; 0.02 ppm
  Theoretical value by Colby's equation: 20%
Spodoptera litura; Spodoptera litura, foliar, 72 h, read-out: Mortality of single agent against Spodoptera litura, single agent 0.02 ppm, cabbage leaf disk spray, three days
  mortality at 0.02 ppm: 20%
Plutella xylostella [1]; 0.002 ppm
  Theoretical value by Colby's equation: 60%
Plutella xylostella [1]; Plutella xylostella, foliar, 72 h, read-out: Mortality of single agent against Plutella xylostella, single agent 0.002 ppm, cabbage leaf disk spray, three days
  mortality at 0.002 ppm: 60%

## CN/C(=N\[N+](=O)[O-])NCc1cnc(Cl)s1 [Clothianidin]
Laodelphax striatella [3]; [9]
  mortality at 0.005 mg/seedling: 23%

## O=C(N=c1ccccn1Cc1cnc(Cl)nc1)C(F)(F)F [Compound P-243]
Aphis gossypii
  Aphis gossypii (Reference Test Example 3), mortality of larvae: 100%
Laodelphax striatella [4]
  Laodelphax striatella (Reference Test Example 18), mortality of larvae: 100%
Plutella xylostella [5]
  Plutella xylostella (Reference Test Example 1), mortality of larvae: 100%

## CNC(=O)c1cc(C#N)cc(C)c1NC(=O)c1cc(Br)nn1-c1ncccc1Cl [Cyantraniliprole]
Chilo suppressalis; single agent 0.005 mg/seedling
  Mortality of single agent against Chilo suppressalis: 83%

## O=[N+]([O-])C1=C2N(Cc3ccc(Cl)nc3)CCN2[C@H]2CC[C@@H]1O2 [Cycloxaprid]
Laodelphax striatella [3]; single agent 0.005 mg/Seedling (other component 0)
  Theoretical value by Colby's equation: 0%
Laodelphax striatella [3]; single agent 0.005 mg/Seedling, soil irrigation
  Mortality of single agent against Laodelphax striatella: 0%

## C[C@@H](NC(=O)C(C#N)C(C)(C)C)c1ccc(Cl)cc1Cl (stereo partly drawn) [Diclocymet]
Rice blast
  Preventive value (Rice blast test, number of lesions): 8

## CN/C(=N/CC1CCOC1)N[N+](=O)[O-] (stereo not drawn) [Dinotefuran]
Laodelphax striatella [3]; [9]
  mortality at 0.005 mg/seedling: 0%
[6]; 5 ppm
  Theoretical value by Colby's equation: 35%
[6]; Frankliniella occidentalis, foliar, 72 h, read-out: Mortality of single agent against Frankliniella occidentalis
  mortality at 5 ppm: 35%

## CCOc1ccc(C(C)(C)COCc2cccc(Oc3ccccc3)c2)cc1 [Etofenprox]
Laodelphax striatella [7]; [10]
  mortality at 10 ppm: 30%
Laodelphax striatella [7]; foliar, 10 ppm
  Theoretical value by Colby's equation: 30%

## CCc1nc2cc(C)c(Oc3ccc(OC(F)(F)F)cc3)cc2c(OC(=O)OC)c1C [Flometoquin]
Spodoptera litura; Spodoptera litura, single agent 5 ppm (other component 0)
  Theoretical value by Colby's equation: 10%
Spodoptera litura; single agent 5 ppm, cabbage leaf disk spray, three days
  Mortality of single agent against Spodoptera litura: 10%
Plutella xylostella [1]; Plutella xylostella, single agent 0.313 ppm (other component 0)
  Theoretical value by Colby's equation: 0%
Plutella xylostella [1]; single agent 0.313 ppm, cabbage leaf disk spray, three days
  Mortality of single agent against Plutella xylostella: 0%

## O=C1C=C(N(Cc2ccc(Cl)nc2)CC(F)F)CO1 [Flupyradifurone]
Laodelphax striatella [3]; single agent 0.01 mg/Seedling (other component 0)
  Theoretical value by Colby's equation: 5%
Laodelphax striatella [3]; single agent 0.01 mg/Seedling, soil irrigation
  Mortality of single agent against Laodelphax striatella: 5%

## Cc1nn(C)c(Cl)c1C(=O)Nc1cccc2c1C(C)OC2(C)C (stereo not drawn) [Furametpyr]
Rhizoctonia solani
  Preventive value (Sheath blight test, lesion height): 77

## N#Cc1ccccc1NC(=O)c1snc(Cl)c1Cl [Isotianil]
Laodelphax striatella [3]; single agent 0.5 mg/Seedling (other component 0)
  Theoretical value by Colby's equation: 5%
Laodelphax striatella [3]; single agent 0.5 mg/Seedling, soil irrigation
  Mortality of single agent against Laodelphax striatella: 5%
Rice blast
  Preventive value (Rice blast test, number of lesions): 66

## CC[C@H](C)[C@H]1O[C@]2(CC[C@@H]1C)C[C@@H]1C[C@@H](C/C=C(\C)[C@@H](O[C@H]3C[C@H](OC)[C@@H](O[C@H]4C[C@H](OC)[C@@H](O)[C@H](C)O4)[C@H](C)O3)[C@@H](C)/C=C/C=C3\CO[C@@H]4[C@H](O)C(C)=C[C@@H](C(=O)O1)[C@]34O)O2 [Ivermectin]
[2]; single agent 0.009 μg, capsule on mouse, five days, mortality and agonal rate
  Mortality of single agent against Haemaphysalis longicornis: 3%

## C[C@H]1O[C@H](O[C@H]2[C@H](O)[C@@H](O)[C@@H](O)[C@H](O)[C@@H]2O)[C@@H](N)C[C@@H]1NC(=N)C(=O)O [Kasugamycin]
Rice blast
  Preventive value (Rice blast test, number of lesions): 0

## CO/N=C1\C[C@]2(C[C@@H]3C[C@@H](C/C=C(\C)C[C@@H](C)/C=C/C=C4\CO[C@@H]5[C@H](O)C(C)=C[C@@H](C(=O)O3)[C@]45O)O2)O[C@H](/C(C)=C/C(C)C)[C@H]1C [Moxidectin]
[2]; Haemaphysalis longicornis, topical, 120 h, read-out: Mortality of single agent against Haemaphysalis longicornis, single agent 0.009 μg, capsule on mouse, five days, mortality and agonal rate
  mortality at 9 ng: 6%

## O=C(Nc1ccccc1)N(Cc1ccc(Cl)cc1)C1CCCC1 [Pencycuron]
Rhizoctonia solani
  Preventive value (Sheath blight test, lesion height): 69

## CC1(C)C(C=C(Cl)Cl)C1C(=O)OCc1cccc(Oc2ccccc2)c1 (stereo not drawn) [Permethrin]
[2]; Haemaphysalis longicornis, topical, 120 h, read-out: Mortality of single agent against Haemaphysalis longicornis, single agent 9.5 μg, capsule on mouse, five days, mortality and agonal rate
  mortality at 0.0095 mg: 71%

## CC1=NNC(=O)N(/N=C/c2cccnc2)C1 [Pymetrozine]
Laodelphax striatella [3]; [9]
  mortality at 0.05 mg/seedling: 15%

## CCOc1ccc([Si](C)(C)CCCc2ccc(F)c(Oc3ccccc3)c2)cc1 [Silafluofen]
Laodelphax striatella [7]; Laodelphax striatella foliar, single agent 5 ppm (other component 0)
  Mortality of single agent: 55%
Laodelphax striatella [7]; [10]
  mortality at 5 ppm: 55%

## C[Si](C)(C)CC(O)(Cn1cncn1)c1ccc(F)cc1 (stereo not drawn) [Simeconazole]
Rhizoctonia solani
  Preventive value (Sheath blight test, lesion height): 5

## CC(c1ccc(C(F)(F)F)nc1)S(C)(=O)=NC#N (stereo not drawn) [Sulfoxaflor]
Laodelphax striatella [3]; [9]
  mortality at 0.005 mg/seedling: 1%

## CC(=O)Oc1c(C)c(C)nc2c(F)cc(C(C)(C)C)cc12 [Tebufloquin]
Rice blast
  Preventive value (Rice blast test, number of lesions): 48

## CN1COCN(Cc2cnc(Cl)s2)/C1=N\[N+](=O)[O-] [Thiamethoxam]
Laodelphax striatella [3]; Laodelphax striatellus, soil, 72 h, read-out: Mortality of single agent against Laodelphax striatella, single agent 0.01 mg/Seedling, soil irrigation
  mortality at 0.01 mg/seedling: 23%

## Cc1nc(C(F)(F)F)c(C(=O)Nc2c(Br)cc(OC(F)(F)F)cc2Br)s1 [Thifluzamide]
Rhizoctonia solani
  Preventive value (Sheath blight test, lesion height): 92

## Cc1ccc(NC(=O)c2snnc2C)cc1Cl [Tiadinil]
Laodelphax striatella [3]; Laodelphax striatellus, soil, 72 h, read-out: Mortality of single agent against Laodelphax striatella, single agent 0.5 mg/Seedling, soil irrigation
  mortality at 0.5 mg/seedling: 8%
Rice blast
  Preventive value (Rice blast test, number of lesions): 0

## Cc1cccc2sc3nncn3c12 [Tricyclazole]
Rice blast
  Preventive value (Rice blast test, number of lesions): 72

## CN/C(=N/CC1CCOC1)N[N+](=O)[O-] (stereo not drawn) [dinotefuran]
[2]; Haemaphysalis longicornis, topical, 120 h, read-out: Mortality of single agent against Haemaphysalis longicornis, single agent 1.9 μg, capsule on mouse, five days, mortality and agonal rate
  mortality at 0.0019 mg: 0%

## N#Cc1nn(-c2c(Cl)cc(C(F)(F)F)cc2Cl)c(N)c1[S+]([O-])C(F)(F)F (stereo not drawn) [fipronil]
[2]; [8]
  mortality at 0.00038 mg: 78%

## CC(COc1ccc(Oc2ccccc2)cc1)Oc1ccccn1 (stereo not drawn) [pyriproxyfen]
[2]; Haemaphysalis longicornis, topical, 120 h, read-out: Mortality of single agent against Haemaphysalis longicornis, single agent 0.0475 μg, capsule on mouse, five days, mortality and agonal rate
  mortality at 47.5 ng: 2%

## Emamectin benzoate
Spodoptera litura; Spodoptera litura, single agent 0.02 ppm (other component 0)
  Theoretical value by Colby's equation: 0%
Spodoptera litura; single agent 0.02 ppm, cabbage leaf disk spray, three days
  Mortality of single agent against Spodoptera litura: 0%

## spinetoram
[2]; Haemaphysalis longicornis, single agent 0.38 μg (other component 0)
  Theoretical value by Colby's equation: 6%
[2]; single agent 0.38 μg, capsule on mouse, five days, mortality and agonal rate
  Mortality of single agent against Haemaphysalis longicornis: 6%

## spinosad
[2]; Haemaphysalis longicornis, single agent 1.9 μg (other component 0)
  Theoretical value by Colby's equation: 2.5%
[2]; single agent 1.9 μg, capsule on mouse, five days, mortality and agonal rate
  Mortality of single agent against Haemaphysalis longicornis: 2.5%
